US6447748B1, “Benzamide compounds for cancer imaging and therapy” (Research Corporation Technologies, Inc., priority 1993, dated 2002)
Like-named read-outs stand apart in the source and are kept apart here.

How the values were obtained:
[1] = target: sigma sites labeled by 4-[125I]PEMP in guinea pig brain membranes; type: binding; settings: read-out: Ki against 4-[125I]PEMP
Protocol: Intact adherent cells were washed (2×1 mL) with 10 mM phosphate buffer (pH=7.2). […] Each data point represent an average of three values. The cells were incubated at 37° C. for 1 hr. and subsequently washed with phosphate buffer (10 mM; pH 7.2) (3×1 mL). The cells were then dissolved in 0.2 N NaOH (1.0 mL) and the activity counted on a Beckman (DP 5500) Gamma Counter. A similar procedure was repeated with 2-[^125I]BP with MCF-7, MDA-MB 231 and T47D breast cancer cells.
The affinity of compounds for sites labeled by 4-[^125I]PEMP was determined by homologous and heterologous in vitro competitive binding assays in intact MCF-7 breast cancer cells and guinea pig brain membranes labeled by 4-[^125I]PEMP. The assays were prepared according to the procedure described in Example 14.

[2] = test system: Sigma-1 sites, MCF-7 breast adenocarcinoma
Sigma-2 = target: T1, Sigma-2 (Rattus norvegicus, UniProt Q5U3Y7); assay: Sigma-2 binding assay, rat liver membranes, [3H]DTG + dextrallorphan (Example 9)
T1 sequence (Q5U3Y7 1-176): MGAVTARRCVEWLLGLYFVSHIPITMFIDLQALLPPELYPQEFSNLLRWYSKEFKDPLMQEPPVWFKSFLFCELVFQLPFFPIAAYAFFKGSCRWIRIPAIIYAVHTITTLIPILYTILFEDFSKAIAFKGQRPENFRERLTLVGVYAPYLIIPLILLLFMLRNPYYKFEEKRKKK

DOPAMINE D-2 = target: T2, DOPAMINE D-2 (Rattus norvegicus, UniProt P61169); assay: Dopamine D-2 binding, rat brain, [3H]-(−)-sulpiride; settings: Table 2 of Example 9
T2 construct: from tissue
T2 sequence (P61169 whole entry): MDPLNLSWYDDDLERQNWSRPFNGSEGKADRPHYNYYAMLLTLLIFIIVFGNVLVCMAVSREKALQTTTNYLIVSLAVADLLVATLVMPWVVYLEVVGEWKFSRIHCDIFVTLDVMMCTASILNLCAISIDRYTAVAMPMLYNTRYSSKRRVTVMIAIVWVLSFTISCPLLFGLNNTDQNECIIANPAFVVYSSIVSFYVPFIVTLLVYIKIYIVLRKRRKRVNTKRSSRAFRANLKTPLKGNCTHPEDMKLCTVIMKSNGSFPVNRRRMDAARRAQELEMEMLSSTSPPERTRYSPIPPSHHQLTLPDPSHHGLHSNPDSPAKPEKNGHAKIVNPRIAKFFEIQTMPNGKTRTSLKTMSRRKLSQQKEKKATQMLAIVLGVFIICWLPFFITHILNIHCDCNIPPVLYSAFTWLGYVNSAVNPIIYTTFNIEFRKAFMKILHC

PCP = PCP binding, rat brain, [3H]TCP; settings: Table 2 of Example 9
[3] = target: MUSC (muscarinic receptors); type: binding; settings: read-out: Ki MUSC RAT BRAIN [3H]QNB
Sigma-1 = Sigma-1 (Cavia porcellus, UniProt Q60492); assay: Sigma-1 binding assay, guinea pig brain membranes, [3H]-(+)-pentazocine (Example 9)
Sigma-1, sequence (Q60492 whole entry): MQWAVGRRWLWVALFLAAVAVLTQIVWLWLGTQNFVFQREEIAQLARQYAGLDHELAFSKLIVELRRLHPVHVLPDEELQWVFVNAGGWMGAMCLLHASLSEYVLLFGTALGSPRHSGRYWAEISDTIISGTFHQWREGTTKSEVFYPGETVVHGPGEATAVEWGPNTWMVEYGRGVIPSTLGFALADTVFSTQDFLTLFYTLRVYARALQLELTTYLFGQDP
Protocol: A plasma membrane-mitochondrial (P2) membrane fraction was prepared from frozen guinea pig brains (Pel-Freeze, Rogers, Ak.), minus cerebellum. The brain tissue was thawed slowly before homogenization. A crude P2 membrane fraction was also prepared from the livers of Sprague-Dawley rats (150-220 g, Taconic Farms). The animals were decapitated and their livers were minced and homogenized. The tissue homogenization was carried out at 4° C. in 10 mM tris-HCl/0.32 M sucrose, pH=7.4 using 10 motor-driven strokes in a Potter-Elvehjem Teflon glass homogenizer. The crude homogenate was centrifuged for 10 min at 1000 g and the crude nuclear (P1) pellet was discarded. Supernatants were centrifuged at 31000×g for 15 min to yield a plasma membrane-mitochondrial pellet (P2). This pellet was resuspended in 3 ml/g in 10 mM tris-HCl, pH 7.4 and used for binding studies. Protein concentrations were determined by the method of Lowry.
Filters were washed twice with ice-cold 10 mM tris-HCL. Prior to use, filters were soaked in 0.5% polyethyleneimine for about 30 min at 25° C.
When the assay was terminated, the membranes were filtered and the filtrate washed twice as above. The radioactivity was counted in Ecoscint (National Diagnostics, Manville, N.J.) after an overnight extraction of counts.
Ki values were calculated from the IC50 values using Cheng-Prusoff equation.

[4] = target: T3, sigma sites labeled by 4-[125I]BP in MCF-7 breast cancer cells (Homo sapiens, UniProt Q5BJF2); assay: Homologous and heterologous competition for 4-[125I]BP binding in intact MCF-7 cells; settings: 37° C. for 1 hr., unit printed in b378 only, not in the table
T3 construct: Intact adherent cells were washed (2×1 mL) with 10 mM phosphate buffer; endogenous in cells; host or cells: intact adherent MCF-7 breast cancer cells
T3 sequence (Q5BJF2 whole entry): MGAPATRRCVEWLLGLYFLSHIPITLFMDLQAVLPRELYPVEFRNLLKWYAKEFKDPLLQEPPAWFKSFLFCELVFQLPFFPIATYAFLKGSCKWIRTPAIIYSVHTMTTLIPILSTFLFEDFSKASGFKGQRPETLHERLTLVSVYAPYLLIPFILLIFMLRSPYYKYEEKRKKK

[5] = for Biodistribution Blood / Biodistribution Bone / Biodistribution Brain / Biodistribution Gonads / Biodistribution Heart / Biodistribution Kidney / Biodistribution Liver / Biodistribution Lunq / Biodistribution Muscle / Biodistribution Spleen / Biodistribution Thyroid: Wistar male rats, average of four rats
Protocol: Male Wistar rats (200-230g), while under anesthesia, were injected intravenously with 0.1 ml of a saline solution containing 20% ethanol solution of 4-[^125I]BP (4-5 μCi). At 1, 4, 6 and 24 hr. after injection, blood samples were collected by cardiac puncture and the […] were sacrificed immediately thereafter by cardiectomy while under anesthesia. The organs of interest were subsequently excised, blotted with tissue paper, weighed, and the radioactivity was counted using a Packard automatic counter (autogamma 5650). The % injected dose/g (% ID/g) values were determined by comparison of tissue radioactivities with suitably diluted aliquots of the injected 4-[^125I]BP dose divided by the weight of the organ.

[6] = read-out: Ki SIGMA-2 RAT LIVER [3H]DTG + DEX, Table 2 of Example 9
[7] = read-out: Ki SIGMA-1 GUINEA PIG BRAIN [3H]-(+)-PENT, Table 2 of Example 9, 120 min at 25° C.

CC(C)=CCN1CCC2(C)c3cc(O)ccc3CC1C2C (single isomer, unassigned; (+)) [(+)-Pentazocine]
Ki [1]: 0.0359 µM | specific binding to sigma-1 sites [2]: little or no specific binding

O=C(NC1CCN(Cc2ccccc2)CC1)c1ccccc1I [2-IBP, (N-Benzylpiperidin-4-yl)-2-iodobenzamide]
Ki (Sigma-2; [6]): 0.0296 ± 0.00049 µM | Ki (DOPAMINE D-2): 0.0634 ± 0.0108 µM | Ki (PCP): > 100 µM | Ki [3]: > 100 µM | Ki (Sigma-1; [7]): 0.00164 ± 0.00015 µM

O=C(NC1CCN(Cc2ccccc2)CC1)c1cccc(I)c1 [3-IBP, (N-Benzylpiperidin-4-yl)-3-iodobenzamide]
Ki (Sigma-2; [6]): 0.0846 ± 0.0025 µM | Ki (DOPAMINE D-2): 0.0248 ± 2e-05 µM | Ki (PCP): > 100 µM | Ki [3]: > 100 µM | Ki (Sigma-1; [7]): 0.00302 ± 0.00106 µM

O=C(NC1CCN(Cc2ccccc2)CC1)c1ccc(I)cc1 [4-IBP, (N-Benzylpiperidin-4-yl)-4-iodobenzamide]
Ki (Sigma-2; [6]): 0.0252 ± 0.00128 µM | Ki (DOPAMINE D-2): 0.382 ± 0.039 µM | Ki (PCP): > 100 µM | Ki [3]: > 100 µM | Ki [4]: 0.0048 ± 0.002 µM

CN(CCc1ccc(I)cc1)CCN1CCCCC1 [4-IPEMP, N-[(4-I-iodophenyl)ethyl]-N-methyl-2-(1-piperidinyl)-ethylamine]
Ki (Sigma-2): 0.0526 µM | Ki (Sigma-1): 0.00702 µM

O=C(NC1CCN(Cc2ccccc2)CC1)c1ccc([125I])cc1 [4-[^125I]BP, ^125I-(N-Benzylpiperidin-4-yl)-4-iodobenzamide]
Biodistribution Blood ([5]; 1 hr.): 0.04 ± 0.00 % ID/g | Biodistribution Bone ([5]; 1 hr.): 0.24 ± 0.01 % ID/g | Biodistribution Brain ([5]; 1 hr.): 1.24 ± 0.13 % ID/g | Biodistribution Gonads ([5]; 1 hr.): 0.39 ± 0.03 % ID/g | Biodistribution Heart ([5]; 1 hr.): 0.75 ± 0.05 % ID/g | Biodistribution Kidney ([5]; 1 hr.): 2.10 ± 0.15 % ID/g | Biodistribution Liver ([5]; 1 hr.): 4.77 ± 0.13 % ID/g | Biodistribution Lunq ([5]; 1 hr.): 5.05 ± 0.26 % ID/g | Biodistribution Muscle ([5]; 1 hr.): 0.24 ± 0.02 % ID/g | Biodistribution Spleen ([5]; 1 hr.): 1.60 ± 0.10 % ID/g | Biodistribution Thyroid ([5]; 1 hr.): 0.07 ± 0.01 % ID/g | Biodistribution Blood ([5]; 4 hr.): 0.02 ± 0.00 % ID/g | Biodistribution Bone ([5]; 4 hr.): 0.24 ± 0.05 % ID/g | Biodistribution Brain ([5]; 4 hr.): 1.29 ± 0.05 % ID/g | Biodistribution Gonads ([5]; 4 hr.): 0.30 ± 0.02 % ID/g | Biodistribution Heart ([5]; 4 hr.): 0.74 ± 0.04 % ID/g | Biodistribution Kidney ([5]; 4 hr.): 2.05 ± 0.02 % ID/g | Biodistribution Liver ([5]; 4 hr.): 7.76 ± 0.36 % ID/g | Biodistribution Lunq ([5]; 4 hr.): 5.22 ± 0.78 % ID/g | Biodistribution Muscle ([5]; 4 hr.): 0.20 ± 0.02 % ID/g | Biodistribution Spleen ([5]; 4 hr.): 1.51 ± 0.19 % ID/g | Biodistribution Thyroid ([5]; 4 hr.): 0.12 ± 0.00 % ID/g | Biodistribution Blood ([5]; 6 hr.): 0.04 ± 0.00 % ID/g | Biodistribution Bone ([5]; 6 hr.): 0.44 ± 0.03 % ID/g | Biodistribution Brain ([5]; 6 hr.): 1.23 ± 0.08 % ID/g | Biodistribution Gonads ([5]; 6 hr.): 0.34 ± 0.01 % ID/g | Biodistribution Heart ([5]; 6 hr.): 0.75 ± 0.02 % ID/g | Biodistribution Kidney ([5]; 6 hr.): 2.10 ± 0.08 % ID/g | Biodistribution Liver ([5]; 6 hr.): 7.20 ± 0.40 % ID/g | Biodistribution Lunq ([5]; 6 hr.): 4.85 ± 0.17 % ID/g | Biodistribution Muscle ([5]; 6 hr.): 0.12 ± 0.02 % ID/g | Biodistribution Spleen ([5]; 6 hr.): 1.57 ± 0.12 % ID/g | Biodistribution Thyroid ([5]; 6 hr.): 0.23 ± 0.05 % ID/g | Biodistribution Blood ([5]; 24 hr.): 0.02 ± 0.00 % ID/g | Biodistribution Bone ([5]; 24 hr.): 0.47 ± 0.07 % ID/g | Biodistribution Brain ([5]; 24 hr.): 1.24 ± 0.06 % ID/g | Biodistribution Gonads ([5]; 24 hr.): 0.34 ± 0.01 % ID/g | Biodistribution Heart ([5]; 24 hr.): 0.65 ± 0.03 % ID/g | Biodistribution Kidney ([5]; 24 hr.): 1.54 ± 0.05 % ID/g | Biodistribution Liver ([5]; 24 hr.): 5.37 ± 0.53 % ID/g | Biodistribution Lunq ([5]; 24 hr.): 3.70 ± 0.38 % ID/g | Biodistribution Muscle ([5]; 24 hr.): 0.12 ± 0.01 % ID/g | Biodistribution Spleen ([5]; 24 hr.): 1.47 ± 0.28 % ID/g | Biodistribution Thyroid ([5]; 24 hr.): 0.29 ± 0.04 % ID/g | clearance from the blood pool ([5]; Wistar rats): cleared quickly | crossing of the blood brain barrier ([5]; Wistar rats, retained in the brain after 24 hours): crossed the blood brain barrier | in vivo dehalogenation (thyroid activity after 24 hours) ([5]; rat, in vivo): no in vivo dehalogenation
